According to patent US10710993B2, “Benzofuran pyrazole amine kinase inhibitor” (Hangzhou REX Pharmaceutical Co., LTD., priority 2016, dated 2020):

Experiments:
Wild-Type ALK = target: T1, Wild-Type ALK (Homo sapiens, UniProt Q9UM73); assay: Z'-LYTE (FRET) ALK kinase inhibitory activity; format: biochemical
T1 construct: purchased Life Technology
Experimental: (§1) The kinase activity assay was determined by using kinase assay panel (Life Technology) and the result was in table 1.

ALK L1196M = target: T2, ALK L1196M (Homo sapiens, UniProt Q9UM73, L1196M); assay: LanthaScreen Eu Kinase Binding Assay (TR-FRET) on ALK mutant
T2 construct: purchased Life Technology
T2 sequence (Q9UM73 19-1620 L1196M): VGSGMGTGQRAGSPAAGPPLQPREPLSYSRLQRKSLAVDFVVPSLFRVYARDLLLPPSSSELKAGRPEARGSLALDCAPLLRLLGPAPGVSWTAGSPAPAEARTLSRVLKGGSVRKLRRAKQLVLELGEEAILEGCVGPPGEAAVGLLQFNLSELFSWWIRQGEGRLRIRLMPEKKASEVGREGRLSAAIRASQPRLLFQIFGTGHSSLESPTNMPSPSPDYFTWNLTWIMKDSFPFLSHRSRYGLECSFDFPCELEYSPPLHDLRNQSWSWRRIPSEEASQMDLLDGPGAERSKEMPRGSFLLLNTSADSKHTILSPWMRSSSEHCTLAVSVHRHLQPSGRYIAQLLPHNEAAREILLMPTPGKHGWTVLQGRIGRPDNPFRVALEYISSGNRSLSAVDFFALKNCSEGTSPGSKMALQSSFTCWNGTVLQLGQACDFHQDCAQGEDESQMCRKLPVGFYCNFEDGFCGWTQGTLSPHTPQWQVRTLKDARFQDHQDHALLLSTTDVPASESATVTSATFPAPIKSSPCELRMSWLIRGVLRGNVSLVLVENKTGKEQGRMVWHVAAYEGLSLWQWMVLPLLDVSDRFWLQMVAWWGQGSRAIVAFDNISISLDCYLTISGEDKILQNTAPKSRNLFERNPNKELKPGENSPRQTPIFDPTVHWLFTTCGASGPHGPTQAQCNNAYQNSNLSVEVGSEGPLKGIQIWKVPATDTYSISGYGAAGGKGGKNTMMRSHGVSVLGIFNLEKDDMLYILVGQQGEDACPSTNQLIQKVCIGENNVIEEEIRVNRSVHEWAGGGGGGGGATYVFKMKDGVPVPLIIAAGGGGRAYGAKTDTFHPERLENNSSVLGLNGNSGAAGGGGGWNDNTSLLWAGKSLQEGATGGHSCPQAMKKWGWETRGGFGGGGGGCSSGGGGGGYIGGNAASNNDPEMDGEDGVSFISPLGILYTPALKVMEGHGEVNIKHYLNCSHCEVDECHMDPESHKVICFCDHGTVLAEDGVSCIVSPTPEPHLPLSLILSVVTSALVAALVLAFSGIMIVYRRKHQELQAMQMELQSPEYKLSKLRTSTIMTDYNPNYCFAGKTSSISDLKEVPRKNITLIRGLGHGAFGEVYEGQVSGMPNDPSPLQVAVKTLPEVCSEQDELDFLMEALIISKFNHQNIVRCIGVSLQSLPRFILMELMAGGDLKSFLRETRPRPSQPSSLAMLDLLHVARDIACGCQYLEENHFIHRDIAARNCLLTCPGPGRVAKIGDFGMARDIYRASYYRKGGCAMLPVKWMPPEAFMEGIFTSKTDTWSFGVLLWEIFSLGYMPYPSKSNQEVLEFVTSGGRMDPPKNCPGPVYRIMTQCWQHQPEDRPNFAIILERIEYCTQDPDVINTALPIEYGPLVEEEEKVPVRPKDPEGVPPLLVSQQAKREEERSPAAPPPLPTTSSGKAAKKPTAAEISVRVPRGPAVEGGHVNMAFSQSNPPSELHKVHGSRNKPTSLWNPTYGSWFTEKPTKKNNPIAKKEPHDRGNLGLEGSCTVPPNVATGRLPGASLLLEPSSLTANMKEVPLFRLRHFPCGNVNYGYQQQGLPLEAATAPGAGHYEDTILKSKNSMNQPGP
Excerpt: Meanwhile, The LanthaScreen® Eu Kinase Binging Assay (TR-FRET) method was used for determining ALK Mutants (such as ALK L1196M) inhibitory activity IC50. LanthaScreen Eu kinase binding experiment detected Alexa Fluor conjugate or kinase “tracer” binding by adding Eu labeled antibodies or anti-label antibodies. The combination of tracer and antibody with kinase leads to a high level of FRET, whereas the use of kinase inhibitors in place of tracer may cause FRET loss.
as §1

TEL-ALK-F1174L-BaF3 = target: T3, TEL-ALK-F1174L-BaF3 (Homo sapiens, UniProt Q9UM73, F1174L, cells depend on it); assay: Cell proliferation experiment (Cell-Titer GLO), TEL-ALK-F1174L-BaF3; format: cell-based; conditions: 72 h, read-out: IC50 TEL-ALK F1174L-BaF3
T3 construct: fused on or other part: TEL (ETV6) N-terminal oligomerising part fused before the ALK intracellular/kinase part; P41212 (Transcription factor ETV6)
T3 sequence (Q9UM73 whole entry F1174L, the tested form may be a part): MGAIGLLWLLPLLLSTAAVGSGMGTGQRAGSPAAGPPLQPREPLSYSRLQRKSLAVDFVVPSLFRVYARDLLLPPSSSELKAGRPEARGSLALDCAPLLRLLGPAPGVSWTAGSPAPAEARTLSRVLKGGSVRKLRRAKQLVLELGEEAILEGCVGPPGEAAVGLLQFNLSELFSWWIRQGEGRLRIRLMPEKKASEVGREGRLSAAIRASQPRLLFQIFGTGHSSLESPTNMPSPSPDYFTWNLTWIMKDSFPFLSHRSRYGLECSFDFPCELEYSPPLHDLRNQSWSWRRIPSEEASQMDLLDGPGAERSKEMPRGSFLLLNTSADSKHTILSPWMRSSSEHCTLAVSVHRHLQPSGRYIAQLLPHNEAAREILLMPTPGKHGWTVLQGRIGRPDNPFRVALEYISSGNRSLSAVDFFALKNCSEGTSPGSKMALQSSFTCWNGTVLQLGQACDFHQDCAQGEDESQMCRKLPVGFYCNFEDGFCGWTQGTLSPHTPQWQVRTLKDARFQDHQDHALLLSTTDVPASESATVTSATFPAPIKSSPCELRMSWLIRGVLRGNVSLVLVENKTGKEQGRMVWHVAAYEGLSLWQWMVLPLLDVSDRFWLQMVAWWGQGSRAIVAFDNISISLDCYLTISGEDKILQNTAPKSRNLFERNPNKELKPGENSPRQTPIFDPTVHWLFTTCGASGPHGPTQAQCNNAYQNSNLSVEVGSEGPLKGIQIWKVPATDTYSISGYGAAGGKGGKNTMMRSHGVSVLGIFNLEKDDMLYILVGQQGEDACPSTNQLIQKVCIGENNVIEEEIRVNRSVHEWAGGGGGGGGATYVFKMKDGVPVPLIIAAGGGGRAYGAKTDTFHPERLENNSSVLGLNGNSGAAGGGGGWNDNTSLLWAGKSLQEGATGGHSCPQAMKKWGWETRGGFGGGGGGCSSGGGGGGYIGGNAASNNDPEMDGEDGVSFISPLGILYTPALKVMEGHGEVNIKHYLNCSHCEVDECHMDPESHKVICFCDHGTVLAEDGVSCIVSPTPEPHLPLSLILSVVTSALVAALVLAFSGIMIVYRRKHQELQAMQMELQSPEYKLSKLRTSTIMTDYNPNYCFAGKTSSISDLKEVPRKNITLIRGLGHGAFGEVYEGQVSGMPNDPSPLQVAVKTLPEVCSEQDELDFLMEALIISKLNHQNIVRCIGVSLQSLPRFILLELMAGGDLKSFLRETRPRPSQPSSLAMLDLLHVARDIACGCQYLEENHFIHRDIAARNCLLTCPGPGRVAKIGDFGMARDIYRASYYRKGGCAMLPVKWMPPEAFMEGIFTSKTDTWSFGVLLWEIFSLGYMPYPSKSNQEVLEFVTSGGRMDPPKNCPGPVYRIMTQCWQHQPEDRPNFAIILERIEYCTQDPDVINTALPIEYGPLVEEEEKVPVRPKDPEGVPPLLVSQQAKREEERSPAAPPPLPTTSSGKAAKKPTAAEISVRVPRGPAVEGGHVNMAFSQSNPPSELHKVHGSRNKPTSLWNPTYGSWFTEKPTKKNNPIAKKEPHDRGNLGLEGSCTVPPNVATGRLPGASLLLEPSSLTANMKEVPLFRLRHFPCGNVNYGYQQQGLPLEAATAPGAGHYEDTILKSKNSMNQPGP
Experimental: (§2) Compounds to be tested: Positive compound Ceritinib and the compounds obtained by the examples of the present invention.
(§3) Cell lines: Karpas-299 and NCI-H3122 which were purchased from the Nanjing kebai biotechnology Co. LTD; TEL-ALK-F1174L-BaF3, TEL-ALK-G1202R-BaF3, TEL-ALK-C1156Y-BaF3 and TEL-ALK-L1196M-BaF3 which were purchased from Hefei zhongkopruisheng biological medicine technology Co. LTD.
(§4) Method: Cells were seeded in 96-well plates for 24 h in growth media containing 10% fetalbovine serum (FBS) and cultured overnight at 37° C. The following day, serial dilutions of compounds or appropriate control were added to the designated wells, and cells were incubated at 37° C. for 72 h. A Cell Titer Glo assay (Promega) was then performed to determine the relative cell numbers. IC50 values were calculated by concentration-response curve fitting using a four-parameter analytical method with Graphpad 6.0. Drug inhibition rate (%)=100%−[OD(Compound)−OD(blank)]/[OD(vehicle)−OD(blank)]×100% Equation: […]

TEL-ALK-G1202R-BaF3 = target: T4, TEL-ALK-G1202R-BaF3 (Homo sapiens, UniProt Q9UM73, G1202R, cells depend on it); assay: Cell proliferation experiment (Cell-Titer GLO), TEL-ALK-G1202R-BaF3; format: cell-based; conditions: 72 h, read-out: IC50 TEL-ALK G1202R-BaF3
T4 construct: fused on or other part: TEL (ETV6) N-terminal oligomerising part fused before the ALK intracellular/kinase part; P41212 (Transcription factor ETV6)
T4 sequence (Q9UM73 whole entry G1202R, the tested form may be a part): as the sequence (Q9UM73 whole entry F1174L, the tested form may be a part) above, with L1174F, G1202R counted along it
Experimental: as §2, §3, §4

NCI-H3122 = assay: Cell proliferation experiment (Cell-Titer GLO), NCI-H3122; format: cell-based; conditions: Homo sapiens, 72 h
Experimental: as §2, §3, §4

TEL-ALK-C1156Y-BaF3 = target: T5, TEL-ALK-C1156Y-BaF3 (Homo sapiens, UniProt Q9UM73, C1156Y, cells depend on it); assay: Cell proliferation experiment (Cell-Titer GLO), TEL-ALK-C1156Y-BaF3; format: cell-based; conditions: 72 h, read-out: IC50 TEL-ALK C1156Y-BaF3
T5 construct: fused on or other part: TEL (ETV6) N-terminal oligomerising part fused before the ALK intracellular/kinase part; P41212 (Transcription factor ETV6)
T5 sequence (Q9UM73 whole entry C1156Y, the tested form may be a part): as the sequence (Q9UM73 whole entry F1174L, the tested form may be a part) above, with C1156Y, L1174F counted along it
Experimental: as §2, §3, §4

TEL-ALK-L1196M-BaF3 = target: T6, TEL-ALK-L1196M-BaF3 (Homo sapiens, UniProt Q9UM73, L1196M, cells depend on it); assay: Cell proliferation experiment (Cell-Titer GLO), TEL-ALK-L1196M-BaF3; format: cell-based; conditions: 72 h, read-out: IC50 TEL-ALK L1196M-BaF3
T6 construct: fused on or other part: TEL (ETV6) N-terminal oligomerising part fused before the ALK intracellular/kinase part; P41212 (Transcription factor ETV6)
T6 sequence (Q9UM73 whole entry L1196M, the tested form may be a part): as the sequence (Q9UM73 whole entry F1174L, the tested form may be a part) above, with L1174F, L1196M counted along it
Experimental: as §3
Method: Cells were seeded in 96-well plates for 24 h in growth media containing 10% fetalbovine serum (FBS) and cultured overnight at 37° C. The following day, serial dilutions of compounds or appropriate control were added to the designated wells, and cells were incubated at 37° C. for 72 h. A Cell Titer Glo assay (Promega) was then performed to determine the relative cell numbers. IC50 values were calculated by concentration-response curve fitting using a four-parameter analytical method with Graphpad 6.0.

Karpas-299 = assay: Cell proliferation experiment (Cell-Titer GLO), Karpas-299; format: cell-based; conditions: Homo sapiens, 72 h
Experimental: as §2, §3, §4

[1] = tested on: zebrafish iridophore pigment cells; assay: Phenotypic screening of zebrafish: effect on iridophore pigment cells; format: in vivo, Zebrafish (Danio rerio); conditions: 15 μM
Excerpt: Zebrafish (Danio rerio) is emerging as a predictive vertebrate animal model for in vivo assessment of drug efficacy, toxicity and safety. An important advantage of the zebrafish animal model is that the morphological and molecular basis of tissues and organs is either identical or similar to other vertebrates, including humans. The sequence and presumed function of many genes that are important for vertebrates are conserved in the zebrafish and the homology is as high as 85%. It has been shown that loss-of-function alleles for leukocyte tyrosine kinase (Ltk), the sister kinase to ALK, lack iridophores in zebrafish (Lopes, S. S., Yang, X., et al. (2008). Leukocyte tyrosine kinase functions in pigment cell development. PLoS Genet, 4.). Iridophores are neural crest-derived pigment cells that are clearly visible as shiny silver cells in the developing zebrafish embryo which distribute in the head, eyes, the lateral spine. ALK and LTK are sister kinase.
Therefore, using this principle, we investigated the effect of the compounds on normal zebrafish iridophore pigment cells to explore the compound's anti-ALK activity in vivo.
Method: Fish eggs of 6 hpf (hours post impurity) were randomly divided into groups. Then, subjects with different concentrations were added and the images were collected at 3 dpf (days post impurity). Then, the IOD (integrated option density) values of zebrafish dorsal iridophore pigment cells from the release pore to the caudal position were analyzed using ImageJ software. The Graphpad prism6.0 was used to conduct statistical analysis on Dunnett's t-test, and p<0.05 indicates statistical difference. The calculation formula of iridophore pigment inhibition rate is as follows: Inhibition rate (%)=[1−IOD(Compound)/IOD(vehicle)]×100%

NCI-H2228 tumor cells = assay: Subcutaneous NCI-H2228 lung cancer xenograft model; format: in vivo, BALB/C nude mice
Experimental: BALB/C nude mice were inoculated at the right flank with NCI-H2228 tumor cells to establish the human Lung cancer xenograft model. […] The drug was administered for 14 days and then discontinued for two weeks. The therapeutic effect was evaluated by calculating the relative tumor proliferation rate T/C (%), and the tolerability of treatment was evaluated by the body weight changes and death.
Tumor volume (TV) were measured twice per week in two dimensions using a caliper, and the volume were expressed in mm^3 using the formula: V=0.5 a×b^2 where a and b are the long and short diameters of the tumor, respectively.
Relative tumor volume RTV=Vt/V0, Vt=tumor volume of the drug-treated group on a given day of the study, V0=tumor volume of the drug-treated group on the initial day of dosing.
The T/C value (%) is an indicator of tumor response to treatment, and one of commonly used anti-tumor activity endpoint; T/C %=TRTV/CRTV×100% Relative Tumor Growth Inhibition; % TGI=(1−T/C)×100%;

T1 sequence (Q9UM73 19-1620): as the sequence (Q9UM73 19-1620 L1196M) above, with M1178L counted along it

Structure (SMILES) | IC50 (Wild-Type ALK) [µM] | IC50 (ALK L1196M) [µM] | GI50 (TEL-ALK-F1174L-BaF3) [µM] | GI50 (TEL-ALK-G1202R-BaF3) [µM] | IC50 (NCI-H3122) [µM] | GI50 (TEL-ALK-C1156Y-BaF3) [µM] | GI50 (TEL-ALK-L1196M-BaF3) [µM] | IC50 (Karpas-299) [µM] | IOD ([1]; added at 6 hpf, images at 3 dpf) | inhibition at 15 µM ([1]; Danio rerio, iridophore pigment, 3 dpf, read-out: Inhibition rate %) [%] | TGI (NCI-H2228 tumor cells; 30 mg/kg PO QD 14 days, at 14 days after administration) [%] | tumor volume (NCI-H2228 tumor cells; 30 mg/kg PO QD 14 days, at 14 days after administration (first day after administration end)) [mm^3] | TGI (NCI-H2228 tumor cells; 30 mg/kg PO QD 14 days, end of the experiment (15 days after the administration)) [%] | anti-tumor effect (NCI-H2228 tumor cells; 30 mg/kg, once a day, continuously for 14 days)
Cc1cc(Nc2ncc(C(F)(F)F)c(Nc3cn(C)nc3S(=O)(=O)C(C)C)n2)c2c(c1C1CCN(CCO)CC1)C[C@@H](C)O2 [REX-D5, (R)-2-(4-(7-((4-((3-(isopropylsulfonyl)-1-methyl-1H-pyrazol-4-yl)amino)-5-(trifluoromethyl)pyrimidin-2-yl)amino)-2,5-dimethyl-2,3-dihydrobenzofuran-4-yl)piperidin-1-yl)ethanol] | 0.015 | < 0.0005 | 0.0801 | > 0.18 | 0.0107 | – | – | – | – | – | – | – | – | –
Cc1cc(Nc2ncc(Cl)c(Nc3cn(C(C)C)nc3S(=O)(=O)C(C)C)n2)c2c(c1C1CCNCC1)C[C@@H](C)O2 [REX-D32, (R)-5-chloro-N^2-(2,5-dimethyl-4-(piperidin-4-yl)-2,3-dihydrobenzofuran-7-yl)-N^4-(1-isopropyl-3-(isopropylsulfonyl)-1H-pyrazol-4-yl)pyrimidine-2,4-diamine] | 0.0193 | 0.00386 | < 0.2 | > 0.18 | 0.0572 | – | – | – | – | – | – | – | – | –
Cc1cc(Nc2ncc(Cl)c(Nc3cn(C)nc3S(=O)(=O)C(C)C)n2)c2c(c1C1CCN(C(C)C)CC1)C[C@@H](C)O2 [REX-D14, (R)-5-chloro-N^2-(4-(1-isopropylpiperidin-4-yl)-2,5-dimethyl-2,3-dihydrobenzofuran-7-yl)-N^4-(3-(isopropylsulfonyl)-1-methyl-1H-pyrazol-4-yl)pyrimidine-2,4-diamine] | 0.0157 | 0.0011 | 0.0112 | > 0.18 | 0.0107 | – | – | – | – | – | – | – | – | –
Cc1cc(Nc2ncc(Cl)c(Nc3cn(C)nc3S(=O)(=O)C(C)C)n2)c2c(c1C1CCNCC1)C[C@@H](C)O2 [REX-D1, (R)-5-chloro-N^2-(2,5-dimethyl-4-(piperidin-4-yl)-2,3-dihydrobenzofuran-7-yl)-N^4-(3-(isopropylsulfonyl)-1-methyl-1H-pyrazol-4-yl)pyrimidine-2,4-diamine] | 0.00682 | 0.00134 | < 0.01 | > 0.18 | 0.0106 | 0.0105 | 0.0105 | < 0.02 | – | – | – | – | – | –
Cc1cc(Nc2ncc(Cl)c(Nc3cn(C4CC4)nc3S(=O)(=O)C(C)C)n2)c2c(c1C1CCNCC1)C[C@@H](C)O2 [REX-D31, (R)-5-chloro-N^4-(1-cyclopropyl-3-(isopropylsulfonyl)-1H-pyrazol-4-yl)-N^2-(2,5-dimethyl-4-(piperidin-4-yl)-2,3-dihydrobenzofuran-7-yl)pyrimidine-2,4-diamine] | 0.0151 | 0.00192 | 0.138 | > 0.18 | 0.0404 | – | – | – | – | – | – | – | – | –
Cc1cc(Nc2ncc(Cl)c(Nc3cn(C4CC4)nc3S(=O)(=O)C(C)C)n2)c2c(c1C1CCN(C)CC1)C[C@@H](C)O2 [REX-D34, (R)-5-chloro-N^4-(1-cyclopropyl-3-(isopropylsulfonyl)-1H-pyrazol-4-yl)-N^2-(2,5-dimethyl-4-(1-methylpiperidin-4-yl)-2,3-dihydrobenzofuran-7-yl)pyrimidine-2,4-diamine] | 0.0094 | 0.00112 | 0.0261 | > 0.18 | 0.0139 | – | – | – | – | – | – | – | – | –
Cc1cc(Nc2ncc(Cl)c(Nc3cn(C)nc3S(=O)(=O)C(C)C)n2)c2c(c1C1CCN(CCO)CC1)C[C@@H](C)O2 [REX-D11, (R)-2-(4-(7-((5-chloro-4-((3-(isopropylsulfonyl)-1-methyl-1H-pyrazol-4-yl)amino)pyrimidin-2-yl)amino)-2,5-dimethyl-2,3-dihydrobenzofuran-4-yl)piperidin-1-yl)ethanol] | 0.00846 | < 0.0005 | 0.0107 | > 0.18 | 0.0106 | – | – | – | – | – | – | – | – | –
Cc1cc(Nc2ncc(C(F)(F)F)c(Nc3cn(C)nc3S(=O)(=O)CC(C)C)n2)c2c(c1C1CCN(C)CC1)C[C@@H](C)O2 [REX-D10, (R)—N^2-(2,5-dimethyl-4-(1-methylpiperidin-4-yl)-2,3-dihydrobenzofuran-7-yl)-N^4-(3-(isobutylsulfonyl)-1-methyl-1H-pyrazol-4-yl)-5-(trifluoromethyl)pyrimidine-2,4-diamine] | 0.0171 | < 0.0005 | < 0.2 | > 0.18 | 0.0142 | – | – | – | – | – | – | – | – | –
CCn1cc(Nc2nc(Nc3cc(C)c(C4CCN(C)CC4)c4c3O[C@H](C)C4)ncc2Cl)c(S(=O)(=O)C(C)C)n1 [REX-D36, (R)-5-chloro-N^2-(2,5-dimethyl-4-(1-methylpiperidin-4-yl)-2,3-dihydrobenzofuran-7-yl)-N^4-(1-ethyl-3-(isopropylsulfonyl)-1H-pyrazol-4-yl)pyrimidine-2,4-diamine] | 0.00928 | 0.00055 | 0.0224 | > 0.18 | 0.0114 | – | – | – | – | – | – | – | – | –
Cc1cc(Nc2ncc(C(F)(F)F)c(Nc3cn(C4CC4)nc3S(=O)(=O)C(C)C)n2)c2c(c1C1CCN(C)CC1)C[C@@H](C)O2 [REX-D9, (R)—N^4-(1-cyclopropyl-3-(isopropylsulfonyl)-1H-pyrazol-4-yl)-N^2-(2,5-dimethyl-4-(1-methylpiperidin-4-yl)-2,3-dihydrobenzofuran-7-yl)-5-(trifluoromethyl)pyrimidine-2,4-diamine] | 0.0158 | 0.00102 | 0.0518 | > 0.18 | 0.0118 | – | – | – | – | – | – | – | – | –
Cc1cc(Nc2ncc(Cl)c(Nc3ccccc3S(=O)(=O)C(C)C)n2)c(OC(C)C)cc1C1CCNCC1 [Ceritinib, reference compound] | – | – | 0.0361 | > 0.18 | 0.0407 | 0.0365 | – | 0.04 to 0.085 | 35.5 ± 7.0 | 95 | 94.7 | 17 | 95.3 | significant anti-tumor effect
